# B1: B273: mouse anti-human DR5 monoclonal antibody from hybridoma B273; heavy chain SEQ ID NO: 8, light chain SEQ ID NO: 10; IgG1, κ (antibody, listed as Mus musculus)
# heavy: MGWSCIFLFLLSVTVGVFSEVQLQQSGPELVKPGASVKISCKASGYSFIGYFMNWMKQSHGKSLEWIGRFNPYNGDTFYNQKFKGKATLTVDKSSTTAHMELLSLTSEDSAVYFCGRSAYYFDSGGYFDYWGQGTTLTVSSAKTTPPSVYPLAPGSAAQTNSMVTLGCLVKGYFPEPVTVTWNSGSLSSGVHTFPAVLQSDLYTLSSSVTVPSSTWPSETVTCNVAHPASSTKVDKKIVPRDCGCKPCICTVPEVSSVFIFPPKPKDVLTITLTPKVTCVVVDISKDDPEVQFSWFVDDVEVHTAQTQPREEQFNSTFRSVSELPIMHQDWLNGKEFKCRVNSAAFPAPIEKTISKTKGRPKAPQVYTIPPPKEQMAKDKVSLTCMITDFFPEDITVEWQWNGQPAENYKNTQPIMDTDGSYFVYSKLNVQKSNWEAGNTFTCSVLHEGLHNHHTEKSLSHSPGK
# light: MKLPVRLLVLMFWIPASSSDVVMTQTPLSLPVSLGDQASISCRSSQSLVHSNGNTYLHWYLQKPGQSPKLLIYKVSNRFSGVPDRFSGSGSGTDFTLKISRVEAEDLGIYFCSQSTHVPWTFGGGTKLEIKRADAAPTVSIFPPSSEQLTSGGASVVCFLNNFYPKDINVKWKIDGSERQNGVLNSWTDQDSKDSTYSMSSTLTLTKDEYERHNSYTCEATHKTSTSPIVKSFNRNEC
# Experiments:
# [1] = test system: human colon cancer cell line HCT-15; assay: Antitumor activity in combination with 5-FU in nude mice implanted with HCT-15, comparison with conatumumab; assay type: in vivo; conditions: day 28; antibody 3 mg/kg tail vein days 7, 14, 21; 5-FU 160 mg/kg tail vein day 7
# [2] = test system: human colon cancer cell line DLD-1; assay: Antitumor activity in nude mice implanted with DLD-1 (in combination with CPT-11); assay type: in vivo; conditions: day 55; cB273 10 mg/kg ip day 35; CPT-11 80 mg/kg ip days 35, 40, 43
# Protocol: CPT-11 was intraperitoneally administered at a dose of 80 mg/kg on days 35, 40, and 43 after the implantation (n=10).
# [3] = test system: human colon cancer cell line HCT-15; assay: Antitumor activity in nude mice implanted with HCT-15 (in combination with CPT-11); assay type: in vivo; conditions: day 31; cB273 10 mg/kg tail vein day 7; CPT-11 80 mg/kg ip days 7, 10, 14
# Protocol: CPT-11 was intraperitoneally administered at a dose of 80 mg/kg on days 7, 10, and 14 after the implantation (n=10).
# [4] = test system: human colon cancer cell line HCT-116; assay: Antitumor activity in nude mice implanted with HCT-116 (in combination with CPT-11); assay type: in vivo; conditions: day 28; cB273 10 mg/kg tail vein day 7; CPT-11 65 mg/kg ip days 7, 10, 14
# Protocol: CPT-11 was intraperitoneally administered at a dose of 65 mg/kg on days 7, 10, and 14 after the implantation (n=10).
# [5] = test system: human non-small cell lung cancer cell line NCI-H1975; conditions: day 32; antibody 3 mg/kg tail vein days 11, 18, 25; paclitaxel 6.25 mg/kg tail vein days 11-14
# Protocol: The major axis and the minor axis of the implanted tumor were measured twice a week using an electronic digital caliper (manufactured by Mitutoyo Corporation), and the tumor volume was calculated according to the following calculation formula. Tumor volume (mm^3)=1/2×(Minor axis)^2 (mm)×(Major axis)^2 (mm)
# 3×10^6 cells of a human non-small cell lung cancer cell line NCI-H1975 (purchased from ATCC) were implanted subcutaneously in the axillary region of nude mice. […] Paclitaxel was administered to tumor-bearing mice through the tail vein on days 11, 12, 13, and 14 after the implantation at a dose of 6.25 mg/kg. The experiment was carried out at n=6. In the same manner as described above, the major axis and the minor axis of the implanted tumor were measured, and the tumor volume was calculated.
# [6] = test system: human melanoma cell line A375; assay: Antitumor activity in nude mice implanted with A375 (in combination with vinblastine); assay type: in vivo; conditions: day 46; cB273 10 mg/kg tail vein days 10, 17, 24; vinblastine 10 mg/kg tail vein day 10
# [7] = test system: human colon cancer cell line HCT-15; assay: Comparison of antitumor activity in nude mice implanted with HCT-15 between cB273 and conatumumab; assay type: in vivo; conditions: day 30 after the implantation
# Protocol: 1×10^7 cells of a human colon cancer cell line HCT-15 (purchased from ATCC) were implanted subcutaneously in the axillary region of nude mice. […] In the same manner as described above, the major axis and the minor axis of the implanted tumor were measured, and the tumor volume was calculated.
# [8] = test system: human lung cancer cell line NCI-H1975; assay: Comparison of antitumor activity in nude mice implanted with NCI-H1975 between cB273 and conatumumab; assay type: in vivo; conditions: day 32 after the implantation
# Protocol: 3×10^6 cells of a human lung cancer cell line NCI-H1975 (purchased from ATCC) were implanted subcutaneously in the axillary region of nude mice. […] In the same manner as described above, the major axis and the minor axis of the implanted tumor were measured, and the tumor volume was calculated.
# [9] = test system: human T-lymphoma cell line Jurkat; assay: In vitro cytocidal activity of mouse antibody B273, Jurkat; assay type: cell-based; conditions: 10,000 to 0.01 ng/ml with goat anti-mouse IgG Fc, 24 hours
# Protocol: (§1) Each of a human T-lymphoma cell line Jurkat and a human glioblastoma cell line U-87MG was prepared at 4.4×10^4 cells/ml in RPMI 1640 medium containing 10% FBS or MEM (Minimum Essential Medium) medium containing 10% FBS and added to a white clear bottom 96-well microplate (manufactured by Corning Incorporated) at […], and cultured overnight under the conditions of 37° C. and 5% CO2. The mouse B273 antibody or the mouse IgG1 antibody (manufactured by R&D Systems, Inc.) was mixed with the same concentration of AffiniPure goat anti-mouse IgG Fc specific (manufactured by Jackson ImmunoResearch Laboratories, Inc., #115-005-071), and the resulting mixture was added at 5 μl/well such that the final concentration of the mouse B273 antibody or the mouse IgG1 antibody was 10,000 to 0.01 ng/ml, and the cells were cultured under the conditions of 37° C. and 5% CO2 for 24 hours. The amount of ATP derived from viable cells in each well was measured by a luminometer (manufactured by Perkin Elmer, Inc.) using a CellTiter-Glo® luminescent cell viability assay kit (manufactured by Promega Corporation, #G7571) according to the attached protocol. The cytocidal activity was evaluated by taking the value obtained from the well to which the medium was added in place of the antibody solution as 100% (FIG. 1). In each graph, the cell viability is expressed as a mean±standard deviation (n=3).
# [10] = test system: human glioblastoma cell line U-87MG; assay: In vitro cytocidal activity of mouse antibody B273, U-87MG; assay type: cell-based; conditions: 10,000 to 0.01 ng/ml with goat anti-mouse IgG Fc, 24 hours
# Protocol: as §1
molecule,measurement,setting,value
O=c1[nH]cc(F)c(=O)[nH]1 [5-FU],tumor growth inhibitory rate,[1],54%
"CCc1c2c(nc3ccc(OC(=O)N4CCC(N5CCCCC5)CC4)cc13)-c1cc3c(c(=O)n1C2)COC(=O)[C@]3(O)CC [CPT-11, irinotecan (CPT-11), reference compound]",tumor growth inhibitory rate,[2],29.5%
same,tumor growth inhibitory rate,[3],83.5%
same,tumor growth inhibitory rate,[4],89.8%
CC(=O)O[C@H]1C(=O)[C@@]2(C)[C@H]([C@H](OC(=O)c3ccccc3)[C@]3(O)C[C@H](OC(=O)[C@H](O)[C@@H](NC(=O)c4ccccc4)c4ccccc4)C(C)=C1C3(C)C)[C@]1(OC(C)=O)CO[C@@H]1C[C@@H]2O [paclitaxel],tumor growth inhibitory rate,[5],49%
"CC[C@]1(O)C[C@@H]2CN(CCc3c([nH]c4ccccc34)[C@@](C(=O)OC)(c3cc4c(cc3OC)N(C)[C@H]3[C@@](O)(C(=O)OC)[C@H](OC(C)=O)[C@]5(CC)C=CCN6CC[C@]43[C@@H]65)C2)C1 [vinblastine, reference compound]",tumor growth inhibitory rate,[6],43.6%
conatumumab [reference compound],tumor growth inhibitory rate,"[7]; 3 mg/kg tail vein days 6, 13, 20",27.4%
same,tumor growth inhibitory rate,"[7]; 10 mg/kg tail vein days 6, 13, 20",26.9%
same,tumor growth inhibitory rate,"[7]; 30 mg/kg tail vein days 6, 13, 20",20.3%
same,tumor growth inhibitory rate,"[8]; 3 mg/kg tail vein days 12, 19, 26",13.5%
same,tumor growth inhibitory rate,"[8]; 10 mg/kg tail vein days 12, 19, 26",12.6%
same,tumor growth inhibitory rate,[1],27%
same,tumor growth inhibitory rate,[5],40%
B1,"cytocidal effect (cell viability, ATP)",[9],exhibits a cytocidal effect on both cell lines in an antibody concentration-dependent manner
same,"cytocidal effect (cell viability, ATP)",[10],exhibits a cytocidal effect on both cell lines in an antibody concentration-dependent manner

# Source: US9856321B2, “Anti-DR5 antibodies, polynucleotides and methods” (Daiichi Sankyo Company, Limited, priority 2010, dated 2018)
